In US20070092442A1, “F-18-fluorinated phosphonium cation imaging agents and methods of synthesis” (priority 2005, published 2007):

Key:
C6 cells [1] = assay: Mitochondrial membrane potential (MMP) dependent uptake of FTPP in C6 cells (CCCP, valinomycin, high K+ Hepes buffer); type: cell-based, rat
Description: The extent of MMP and cell membrane potential-dependent cellular uptake of FTPP was further assessed using the C6 cells treated with CCCP, valinomycin, and high K^+ Hepes buffer (5 mM NaCl/135 mM KCl/1.8 mM CaCl2/0.8 mM MgSO4/50 mM Hepes/5.5 mM dextrose, pH 7.4). Carbonylcyanide-m-chlorophenylhydrazone (CCCP), a known protonphore that selectively abolishes the MMP,^26 was dissolved in dimethyl sulfoxide (DMSO) and diluted to desired concentration with low K^+ Hepes buffer. K^+-ionophore valinomycin was dissolved in ethanol and also diluted with low K^+ buffer. Final concentrations of ethanol and DMSO were below 0.1%. Varying concentrations of CCCP and valinomycin were added to the 0.5×10^6 cells in low K^+ Hepes buffer 30 min prior to the start of the experiment. After 1 hr of incubation with 5 μM FTPP, the eppendorf vials were centrifuged, cell lysate were prepared as described above, and the cell uptakes of FTPP were determined using MALDI-TOF-MS. Five sets of 0.5×10^6 cells were also suspended in high K^+ Hepes buffer for 60 min, then exposed to 5 μM FTPP for 10-90 min in high K^+ Hepes buffer. Cell uptake of FTPP was measured by MALDI-TOF-MS. The viability and the integrity of the cells after treatment with inhibitors and high K^+ buffer were examined using Trypan blue.

C6 cells [2] = assay: C6 cell uptake of phosphonium cations determined by MALDI-TOF-MS; type: cell-based, rat; conditions: 5 μM; for rank of uptake in C6 cells among the compounds tested: 25° C.
Description: A rat glioma C6 cell line was grown in Dulbecco's modified Eagle medium (DMEM, Invitrogen Life Technologies, Carlsbad, Calif.) high glucose (containing KCl 5.3 mmol/L and NaCl 110.34 mmol/L) plus 10% fetal bovine serum (FBS), and 1% penicillin-streptomycin at 37° C. in 5% CO2/95% air. After trypsinization, cells were washed with 0.01 M phosphate-buffered saline (PBS, pH=7.4) twice and suspended at 10×10^6 cells /mL in low K^+ Hepes buffer (135 mM NaCl/5 mM KCl/1.8 mM CaCl2/0.8 mM MgSO4/50 mM Hepes [4-(-2-hydroxyethyl)-1-piperazineethanesulfonic acid]/5.5 mM dextrose, pH 7.4). 50 μL (0.5×10^6) of C6 cells were incubated with 10 μL 100 μM stock phosphonium salts solution ([…], the structures of these phosphonium cations are shown in FIG. 1) and 140 μL Hepes buffer from 10 to 90 min at room temperature. The cells were centrifuged (250×g) for three minutes and washed twice with cold PBS buffer at specified times. Cell pellets were then lysed with 150 μL cold spectral grade water, following by freezing in dry ice. Right before the MALDI-TOF-MS analysis, the frozen cell solution was thawed and centrifuged at 12000×g for 5 min. 90 μL cell lysate and 10 μL 10 μM internal standard MeTPP were mixed together, and 1 μL solution was subjected to MALDI-TOF-MS analysis. Samples were prepared and analyzed in triplicate.

[3] = MicroPET imaging, biodistribution and pharmacokinetic in normal nude mice; type: in vivo, mouse; conditions: for heart uptake / liver uptake: tail vein, microPET ROI
Description: PET imaging of normal nude mice was performed on a microPET R4 rodent model scanner (Concorde Microsystems Inc, Knoxville, Tenn.). The mice were injected with about 10-20 μCi of [^18F]FTPP via the tail vein. At 30 min, 1 hr, 2 hr, and 4 hr post injection, the mice were anesthetized with 2% isoflurane and placed in the prone position and near the center of the filed of view of microPET. The 10-min static scans were obtained, and the images were reconstructed by a two-dimensional ordered subsets expectation maximum (OSEM) algorithm. Regions of interest (ROIs) were then drawn over the […] on decay-corrected whole-body coronal images. The counts per pixel per minute were obtained from the ROI and converted to counts per milliliter per minute by using a calibration constant. By assuming a tissue density of 1 g/mL, the ROIs were converted to counts/g/min. An image ROI-derived percentage ID per gram of tissue (% ID/g) was then determined by dividing counts per gram per minute with injected dose (ID).

| Compound | FTPP uptake (normalized) in presence of valinomycin (C6 cells [1]; 10 μM valinomycin, 5 μM FTPP, 1 hr, low K+ Hepes buffer) | FTPP uptake (normalized) in presence of CCCP (C6 cells [1]; 50 μM CCCP, 5 μM FTPP, 1 hr, low K+ Hepes buffer) | effect of CCCP or valinomycin on uptake (C6 cells [1]; CCCP 0.1-50 μM, valinomycin 0.1-10 μM, low K+ Hepes buffer) | decrease in uptake on depolarization of the plasma membrane (high K+ vs low K+ buffer) (C6 cells [1]; high K+ Hepes buffer, 90 min exposure time, 5 μM FTPP) | rank of uptake in C6 cells among the compounds tested (C6 cells [2]) | uptake in C6 cells as percentage of the TPP uptake (C6 cells [2]; glioma C6 cells in vitro, MALDI-TOF-MS) | heart uptake ([3]; 30 minutes pi) | liver uptake ([3]; 30 minutes pi) | heart uptake ([3]; 4 h pi) | liver uptake ([3]; 4 h pi) | localization in microPET images ([3]; female nude mouse, 15 μCi) | route of clearance ([3]; female nude mouse, 15 μCi) |
| --- | --- | --- | --- | --- | --- | --- | --- | --- | --- | --- | --- | --- |
| Fc1ccc([P+](c2ccccc2)(c2ccccc2)c2ccccc2)cc1 [FTPP, 4-Fluorophenyltriphenyl phosphonium] | about 72.8±3.6% | about 27.3±2.3% | inhibited by CCCP or valinomycin in dose-dependent manners | 3.5 fold | 2nd place | 80% | – | – | – | – | – | – |
| [18F]c1ccc([P+](c2ccccc2)(c2ccccc2)c2ccccc2)cc1 [[^18F]FTPP, (4-[^18F]fluorophenyl)triphenylphosphonium] | – | – | – | – | – | – | 5.59±0.93 % ID/g | 7.39±0.36 % ID/g | 3.89±0.29 % ID/g | 2.79±0.59 % ID/g | clearly localized in the heart | mainly cleared out through hepatobiliary system |
| [Br-].c1ccc([P+](c2ccccc2)(c2ccccc2)c2ccccc2)cc1 [TPP, tetraphenylphosphonium bromide, reference compound] | – | – | – | – | highest uptake | – | – | – | – | – | – | – |
